Measured values taken from US12285446B2, “Compositions and methods for improving mitochondrial function” (priority 2018, dated 2025).

Assays:
[1] = system: UbV-gfp; experiment: UbV-gfp reporter; design: species or system Caenorhabditis elegans; conditions: in vivo
Description: To address how Gluconacetobacter spp feeding improves mitochondrial function, a variety of transgenic worm strains were tested, including worms that carry a construct encoding a fusion protein comprising a GFP reporter protein and a gene product that is involved in stress response, mitochondrial activity, peroxisomal function, innate immune response, and different signaling pathways (Table 1; FIGS. 2C-2K; FIGS. 6C-6L; FIGS. 7A-7D).

[2] = system: phsp-6::gfp induced by human Aβ1-42; experiment: phsp-6::gfp UPRmt reporter in worms with panneuronal human Aβ1-42; type: in vivo, Caenorhabditis elegans; conditions: compound treatment
Description: Thus, it is possible to screen for interventions that will reduce the UPRmt induction by modulating the Aβ aggregation or toxicity of Aβ on mitochondria.
For the screen, thirty microbial strains including the negative control bacteria E. coli OP50 were grown in appropriate culture media conditions and spotted onto standard nematode growth medium plates. ˜30 synchronized L1-larval-stage transgenic worm expressing Aβ 1-42 or tau in the pan-neurons were dropped onto the seeded plates and scored visually after 4 days under a fluorescent microscope for changes in phsp-6::gfp expression (FIG. 13).

Structure (SMILES)	UbV-gfp expression [1]	induction of UPRmt (phsp-6::gfp) in Aβ worms treated with compound [2]
CC(C)C[C@H](NC(=O)[C@H](Cc1ccccc1)NC(=O)c1cnccn1)B(O)O [Bortezomib]	stabilizes UbV-gfp	–
Cc1ccc2c(c1)sc(-c1ccc(N(C)C)cc1)[n+]2C.[Cl-] [Thioflavin T]	–	induction of UPRmt was reduced
